In patent US5563125A, “5'-deoxy-5'-(substituted)alkylthioribose compounds and their pharmaceutical compositions” (priority 1992, dated 1996):
Where two headings read alike, the source gives them in different places.

How the values were obtained:
[1] = tested on: T. b. brucei procyclic trypanosomes (Lab 110 EATRO strain); assay: In vitro antitrypanosomal activity, procyclic trypanosomes in T2 medium; format: cell-based, Trypanosoma brucei brucei; details: 3-5 days
Description: The antitrypanosomal effects of HETA and other nucleosides were examined in the Lab 110 EATRO strain of T. b. brucei in culture.
Cells were cultured as described in Bacchi et al. Exp. Parasitol. 68, 392, 1989. Cells were then grown in the presence of the compounds for 3-5 days. Drugs were filtered, sterilized and added aseptically. Control cells achieved a maximum density of 1.5-3.5×10^7 /ml. Hemocytometer counts were made daily and the results were expressed as a percent of control growth. IC50 plots were obtained by graphing log (drug) vs. percent growth inhibition.
Trypanocidal Activity of MTA and MTR Analogs
against T. b. brucei procyclic trypanosomes in T2 medium.

[2] = tested on: Trichomonas vaginalis ATCC 3001; assay: Minimum lethal concentration against Trichomonas vaginalis, multiwell plate assay, ATCC 3001; format: cell-based
Description: (§1) Preliminary in vitro evaluation of HETA and other compounds against isolates of Trichomonas vaginalis was done.
(§2) Values are expressed as μg of compound per ml of medium required to inhibit growth and motility of the parasite in a multiwell plate assay as described by Meingassner, Mieth, Czok, Lindmark and Muller (1978) Antimicrob. Agents and Chemother. 13, 1-3. The present drug used for treatment--metronidazole (Flagyl®) is included for comparison. Strain ATCC 50143 (CDC-85) was refractory to chemotherapeutic dose levels of metronidazole. (ND=not done).

[3] = tested on: Trichomonas vaginalis ATCC 50143 (CDC-85), metronidazole-resistant; assay: Minimum lethal concentration against Trichomonas vaginalis, multiwell plate assay, ATCC 50143 (CDC-85); format: cell-based
Description: as §1, §2

[4] = target: T1, Mouse Liver MTA Phosphorylase (Mus musculus, UniProt Q9CQ65); assay: Mouse liver MTA phosphorylase substrate/inhibitor assay; format: biochemical; details: for Substrate (% Control): substrate activity relative to MTA
T1 sequence (Q9CQ65 1-283): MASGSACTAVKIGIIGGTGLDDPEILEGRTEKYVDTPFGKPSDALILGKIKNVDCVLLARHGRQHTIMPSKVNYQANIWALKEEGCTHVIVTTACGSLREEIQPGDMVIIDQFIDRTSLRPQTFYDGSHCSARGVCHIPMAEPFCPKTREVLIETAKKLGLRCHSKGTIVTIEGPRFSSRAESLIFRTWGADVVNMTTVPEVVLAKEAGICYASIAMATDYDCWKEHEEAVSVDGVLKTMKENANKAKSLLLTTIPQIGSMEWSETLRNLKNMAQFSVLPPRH
Description: (§3) ^a MTA phosphorylase activity was assayed as described in Sufrin et

[5] = target: T2, T. b. brucei MTA phosphorylase (Trypanosoma brucei, UniProt Q57XS4); assay: T. b. brucei MTA phosphorylase substrate assay; format: biochemical; details: for Percent Control Activity: relative to MTA
T2 construct: MTA or analogs as substrates
Description: ^a MTA phosphorylase was assayed according to Ghoda et al., using 200
μM MTA (saturating) or analogs as substrates. Specific activities of
the dialyzed enzyme preparations were with 50 mM PO4, 104.97 n
moles/mg protein/h; without PO4, 28.27 n moles/mg protein/h. Results
are expressed as percent activity compared to as substrate with and
without PO4, respectively.

[6] = tested on: L1210 cells (MTA phosphorylase-deficient); assay: Growth inhibition of L1210 cells; format: cell-based, mouse; details: L1210, 48 h
Description: (§4) L1210, L5178Y and MOLT-4 cell lines were grown in RPMI 1640 and 10% Nu Serum (Collaborative Research Inc., Lexington, Mass.) and CCRF-CEM cells were grown in 10% Horse Serum (Gibco Laboratories, Grand Island, N.Y.) and maintained as previously described for suspension cultures by Pera et al. in Cancer Res. 46, 1148, 1986. Cell cultures (0.3×10^5 cells/ml) were treated with each compound at 0.1 to 1000 μM to determine the concentration that inhibited growth by 50% (IC50) at 48 hr for the L1210 and L5178Y cells and at 96 hr for the CCRF-CEM and MOLT-4 cells. The incubation times allowed approximately 4 cell doublings in each cell line. All compounds were freshly prepared prior to treatment by dissolving in DMSO and diluting in serum-free media. Cells were counted by electron particle counting (Model XF' Coulter Counter; Coulter Electronics, Hialeah, Fla.).
(§5) For each compound, the concentrations required to inhibit cell growth by 50% (IC50 values) are shown in Table 7 for two murine leukemic cell lines, L1210 and L5178Y [MTA phosphorylase-deficient and MTA phosphorylase-containing, respectively] and two human leukemic cell lines, CCRF-CEM and MOLT-4 [MTA phosphorylase-deficient and MTA phosphorylase-containing, respectively]. ETA, MFETA, HETA and PTA had lower IC50 values in the L5178Y cells than in the L1210 cells. […] This differential is consistent with the possibility that, in L5178Y cells, MFETA is cleaved by MTA phosphorylase to the growth inhibitory metabolite, 5-monofluoroethylthioribose-1-phosphate (MFETR-1-P).

[7] = tested on: L5178Y cells (MTA phosphorylase-containing); assay: Growth inhibition of L5178Y cells; format: cell-based, mouse; details: 48 h
Description: as §4, §5

[8] = tested on: CCRF-CEM cells (MTA phosphorylase-deficient); assay: Growth inhibition of CCRF-CEM cells; format: cell-based, human; details: 96 h
Description: as §4, §5

[9] = tested on: MOLT-4 cells (MTA phosphorylase-containing); assay: Growth inhibition of MOLT-4 cells; format: cell-based, human; details: MOLT-4, 96 h
Description: as §4, §5

[10] = tested on: Plasmodium falciparum (Strain FCR-3: ATCC #30932); assay: Antimalarial activity in vitro, 3H-hypoxanthine incorporation; format: cell-based; details: strain FCR-3, in vitro
Description: P. falciparum was cultured by the method of Trager and Jensen (1976). The FCR-3 strain was used for all experiments. For enzyme measurements, parasites were isolated from infected red cells by saponin lysis and stored at -70° C.
To determine drug effects, ^3 H-hypoxanthine incorporation was measured in the following manner. Infected red cells and varying concentrations of drugs were aliquoted in triplicate wells of a 96-well microtiter plate (Corning). Each well contained a total volume of 200 μl with a final hematocrit of 5 percent and parasitemia of 0.5-1%. The microtiter plates were incubated at 37° C. in candle jars. ^3 H-hypoxanthine (0.5 μCi) was added to each well after 24 hours. After an additional 24 hours of incubation, the parasites were harvested using a PHD cell harvester (Cambridge Technologies). Filters were immersed in Aquasol (New England Nuclear) and counted using a LKB rack beta scintillation counter.
*Concentration which inhibits growth by 50% when compared to untreated,
control cultures, and under defined assay conditions.

[11] = tested on: EATRO 110 strain of T. b. brucei; assay: Bloodstream forms of African trypanosomes grown in vitro, EATRO 110; format: cell-based; details: day 4
Description: (§6) Cultures were initiated directly from infected mouse blood into Falcon 24 well plates containing 1 ml of Iscoves modified Dulbecco's medium plus 20% horse serum, 2 mM pyruvate, 2 mM glutamine, and 0.2 uM mercaptoethanol. Initial cell counts were 2.5-5.0×10^5 /ml. Plates were incubated at 37 C. in 5 percent CO2. HETA was dissolved in the medium and filter sterilized. One half the volume of each well was replaced with fresh medium each day.
(§7) Cell counts were made daily. Data are given as percent inhibition of growth as determined by hemocytometer counts on day 4 as compared to control cultures without drug.
(§8) In Table 2, EATRO 110 is a strain of T. b. brucei; and KETRI 2002, and KETRI 243 are T. b. rhodesiense clinical isolates.

[12] = tested on: KETRI 2002 T. b. rhodesiense clinical isolate; assay: Bloodstream forms of African trypanosomes grown in vitro, KETRI 2002; format: cell-based; details: day 4
Description: as §6, §7, §8

[13] = tested on: KETRI 243 T. b. rhodesiense clinical isolate; assay: Bloodstream forms of African trypanosomes grown in vitro, KETRI 243; format: cell-based; details: day 4
Description: as §6, §7, §8

[14] = tested on: T. b. brucei LAB 110 EATRO; assay: In vivo antitrypanosomal activity, LAB EATRO mouse infection model; details: miniosmotic pump
Description: ^a Animals were treated with surgically implanted miniosmotic pumps
loaded as per manufacturers instructions with MTA, HETA or MFETA suspende

P. falciparum = assay: In vitro antimalarial activity of HETA; format: cell-based, Plasmodium falciparum; details: for growth of the microorganism inhibited in an in vitro screen: P. falciparum in vitro screen
[15] = substrate: CSC[C@H]1O[C@@H](n2cnc3c(N)ncnc32)[C@H](O)[C@@H]1O; assay: Mouse liver MTA phosphorylase substrate/inhibitor assay; format: biochemical; details: other: mouse liver MTA phosphorylase
Description: as §3

T2 sequence (Q57XS4 entry or part of it): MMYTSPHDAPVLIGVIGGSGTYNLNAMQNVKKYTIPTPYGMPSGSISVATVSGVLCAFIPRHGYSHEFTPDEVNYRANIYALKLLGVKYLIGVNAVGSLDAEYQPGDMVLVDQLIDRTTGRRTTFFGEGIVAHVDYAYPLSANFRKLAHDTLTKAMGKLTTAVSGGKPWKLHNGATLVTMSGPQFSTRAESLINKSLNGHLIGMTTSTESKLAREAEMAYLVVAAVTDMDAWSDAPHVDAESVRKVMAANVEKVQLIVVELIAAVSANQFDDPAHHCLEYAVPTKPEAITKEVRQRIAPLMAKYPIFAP

Nc1ncnc2c1ncn2[C@@H]1O[C@H](CSCCCl)[C@@H](O)[C@H]1O [CETA, 5'-deoxy-5'-(chloroethylthio)adenosine]
IC50 [1]: 2.5 µM
Minimum lethal concentration (MLC) ([2]; ATCC 3001, 24 h): 93.7 µg/mL
Minimum lethal concentration (MLC) ([2]; ATCC 3001, 48 h): 23.4 µg/mL
Minimum lethal concentration (MLC) ([3]; ATCC 50143, 24 h): 187.5 µg/mL
Minimum lethal concentration (MLC) ([3]; ATCC 50143, 48 h): 11.7 µg/mL
activity against metronidazole(Flagyl)-resistant strain CDC-85 ([3]; CDC-85 strain, preliminary in vitro evaluation): active
Ki [4]: 12 µM
Substrate (% Control) [4]: 35 % Control
Percent Control Activity ([5]; +50 mM PO4, 200 μM substrate): 60%
Percent Control Activity ([5]; No PO4, 200 μM substrate): 94.4%
IC50 [6]: 250 µM
IC50 [7]: 200 µM
IC50 [8]: 240 ± 90 µM
IC50 [9]: 30 ± 20 µM

CCSC[C@H]1OC(O)[C@H](O)[C@@H]1O (stereo partly shown) [ETR, 5-deoxy-5-(ethylthio)ribose, reference compound]
IC50 ([1]; Trypanosoma brucei): > 100 µM
IC50 [10]: > 1000 µM

Nc1ncnc2c1ncn2[C@@H]1O[C@H](CSCCO)[C@@H](O)[C@H]1O [HETA, 5'-deoxy-5'-(hydroxyethylthio)adenosine]
IC50 ([1]; Trypanosoma brucei): 0.5 µM
percent inhibition of growth ([11]; 0.1 um HETA): 0%
percent inhibition of growth ([11]; 0.5 um HETA): 44%
percent inhibition of growth ([11]; 1.0 um HETA): 59%
percent inhibition of growth ([11]; 2.25 um HETA): 70%
percent inhibition of growth ([12]; 0.1 um HETA): 0%
percent inhibition of growth ([12]; 0.5 um HETA): 0%
percent inhibition of growth ([12]; 1.0 um HETA): 15%
percent inhibition of growth ([12]; 2.25 um HETA): 60%
percent inhibition of growth ([13]; 0.1 um HETA): 0%
percent inhibition of growth ([13]; 0.5 um HETA): 0%
percent inhibition of growth ([13]; 1.0 um HETA): 0%
percent inhibition of growth ([13]; 2.25 um HETA): 0%
% Cured ([14]; 25 mg/kg/day, 7 days): 73%
MSD (mean survival in days of animals dying of infection) ([14]; 25 mg/kg/day, 7 days): 15.3 days
Number Cured Total ([14]; 25 mg/kg/day, 7 days): 11/15
% Cured ([14]; 50 mg/kg/day, 7 days): 68%
MSD (mean survival in days of animals dying of infection) ([14]; 50 mg/kg/day, 7 days): 14.5 days
Number Cured Total ([14]; 50 mg/kg/day, 7 days): 17/25
% Cured ([14]; 50 mg/kg/day, 14 days): 60%
MSD (mean survival in days of animals dying of infection) ([14]; 50 mg/kg/day, 14 days): 18.1 days
Number Cured Total ([14]; 50 mg/kg/day, 14 days): 9/15
% Cured ([14]; 100 mg/kg/day, 7 days): 87%
MSD (mean survival in days of animals dying of infection) ([14]; 100 mg/kg/day, 7 days): 26.0 days
Number Cured Total ([14]; 100 mg/kg/day, 7 days): 13/15
% Cured ([14]; 150 mg/kg/day, 7 days): 90%
MSD (mean survival in days of animals dying of infection) ([14]; 150 mg/kg/day, 7 days): 14.5 days
Number Cured Total ([14]; 150 mg/kg/day, 7 days): 18/20
activity against the C1-NIH strain ([2]; C1-NIH strain, preliminary in vitro evaluation): displays activity
growth of the microorganism inhibited in an in vitro screen (P. falciparum): inhibited
IC50 (P. falciparum; Plasmodium falciparum, P. falciparum in vitro): ~22 µM
Ki ([4]; mouse liver MTA phosphorylase, read-out: K1): 26 µM
Substrate (% Control) [4]: 34 % Control
Percent Control Activity ([5]; +50 mM PO4, 200 μM substrate): 85%
Percent Control Activity ([5]; No PO4, 200 μM substrate): 100%
metabolism by T. b. brucei MTA phosphorylase ([5]; compared with MTA): as effectively as MTA itself
IC50 ([6]; Mus musculus): 1000 µM
IC50 ([7]; Mus musculus): 500 µM
IC50 ([8]; Homo sapiens): 100 µM
IC50 ([9]; Homo sapiens): 40 µM

OCCSC[C@H]1OC(O)[C@H](O)[C@@H]1O (stereo partly shown) [HETR, 5-deoxy-5-(hydroxyethylthio)ribose]
IC50 ([1]; Trypanosoma brucei): > 100 µM
growth of the microorganism inhibited in an in vitro screen (P. falciparum): not
IC50 [10]: > 1000 µM

OC1O[C@H](CSCCF)[C@@H](O)[C@H]1O (stereo partly shown) [MFETR, 5-deoxy-5-(monofluoroethylthio)ribose]
IC50 [10]: 700 µM

B1: Mouse Liver MTA Phosphorylase (Mus musculus) (protein)
chain: MASGSACTAVKIGIIGGTGLDDPEILEGRTEKYVDTPFGKPSDALILGKIKNVDCVLLARHGRQHTIMPSKVNYQANIWALKEEGCTHVIVTTACGSLREEIQPGDMVIIDQFIDRTSLRPQTFYDGSHCSARGVCHIPMAEPFCPKTREVLIETAKKLGLRCHSKGTIVTIEGPRFSSRAESLIFRTWGADVVNMTTVPEVVLAKEAGICYASIAMATDYDCWKEHEEAVSVDGVLKTMKENANKAKSLLLTTIPQIGSMEWSETLRNLKNMAQFSVLPPRH
notes: of Mouse Liver MTA Phosphorylase; from tissue; host or cells: mouse liver
Km [15]: 1.3 µM
